Bridge positions count the residues as written; N and C are the ends. Square brackets hold non-standard residues; d marks the D form. Peptide text beside a SMILES is read from it. * marks the point of attachment. X1 = CC[C@H](C)CCCCC(=O)*; Dab = NCC[C@H](N)C(=O)O
Columns and labels:
B. subtilis = test: microbe, parasite or virus in culture; conditions: for average MIC against B. subtilis: microbroth dilution, 4 × 10^6 CFU/mL, 1 h at 37 °C, TSB added, 24 h at 37 °C, growth inhibition read visually, highest DesHDAP2 concentration […], three technical replicates each from four independent biological experiments; for MIC: Bacillus subtilis, read-out: average MIC against B. subtilis
Excerpt: (§1) The bacteria species and strains used in this study were: Top10 E. coli containing a pET plasmid with ampicillin resistance (Invitrogen Top10), S. marcescens (Carolina Biosciences #155554A), E. aerogenes (ATCC #51697), E. raffinosus (ATCC #49464), S. epidermidis (ATCC #14990) and B. subtilis (ATCC #6501). For radial diffusion, microbroth dilution, and checkerboard assays, bacterial cultures in tryptic soy broth (TSB) were started from individual colonies picked from agar plates and grown overnight (≈16–18 h) in a shaking incubator at 37 °C. Overnight bacterial cultures were diluted into fresh TSB and grown at 37 °C to an optical density (OD600) of 0.5–0.7. Bacteria were pelleted via centrifuge at 1500g at room temperature for 10 min, washed once with cold sterile sodium phosphate buffer (10 mM Na3PO4, 100 mM NaCl, pH 7.4), then pelleted and resuspended again in sodium phosphate buffer.
(§2) Antimicrobial activity was assessed using the microbroth dilution assay. A resuspended bacterial culture prepared as described above was mixed with deionized water to reach a final bacterial concentration of 4 × 10^6 CFU/mL. A twofold dilution series of peptides in deionized water was prepared. 10 μL of the serial dilutions were added to 90 μL of the 4 × 10^6 CFU/mL bacterial solution in a 96-well plate. […] After incubating for 1 h at 37 °C, 50 μL of TSB was added to each testing well. After incubation for 24 h at 37 °C, growth inhibition was determined visually to assess MIC.

E. coli = test: microbe, parasite or virus in culture; conditions: for average MIC against E. coli: microbroth dilution, 4 × 10^6 CFU/mL, 1 h at 37 °C, TSB added, 24 h at 37 °C, growth inhibition read visually, highest DesHDAP2 concentration […], three technical replicates each from four independent biological experiments
Description: as §1, with “For” for “The bacteria species and strains used in this study were: Top10 E. coli containing a pET plasmid with ampicillin resistance (Invitrogen Top10), S. marcescens (Carolina Biosciences #155554A), E. aerogenes (ATCC #51697), E. raffinosus (ATCC #49464), S. epidermidis (ATCC #14990) and B. subtilis (ATCC #6501). For”
as §2, with “well.” for “well. After incubation for 24 h at 37 °C, growth inhibition was determined visually to assess MIC.”

Compound	average MIC against B. subtilis (B. subtilis) [µg/mL]	average MIC against E. coli (E. coli) [µg/mL]	MIC (B. subtilis) [µg/mL]	MIC (E. coli; Escherichia coli, read-out: average MIC against E. coli) [µg/mL]
NC[C@H]1O[C@H](O[C@H]2[C@H](O)[C@@H](O[C@H]3O[C@H](CO)[C@@H](O)[C@H](N)[C@H]3O)[C@H](N)C[C@@H]2N)[C@H](O)[C@@H](O)[C@@H]1O [kanamycin]	3.125	50	–	–
CC[C@H](C)CCCCC(=O)N[C@@H](CCN)C(=O)N[C@H](C(=O)N[C@@H](CCN)C(=O)N[C@H]1CCNC(=O)[C@H]([C@@H](C)O)NC(=O)[C@H](CCN)NC(=O)[C@H](CCN)NC(=O)[C@H](CC(C)C)NC(=O)[C@@H](Cc2ccccc2)NC(=O)[C@H](CCN)NC1=O)[C@@H](C)O [polymyxin B] (X1-[Dab]T[Dab][Dab][Dab][dF]L[Dab][Dab]T; lactam 4-C (inferred); N-terminus assumed)	2000	65	–	–
C[C@H]1COc2c(N3CCN(C)CC3)c(F)cc3c(=O)c(C(=O)O)cn1c23 [levofloxacin]	–	–	5	0.2
CN(C)[C@@H]1C(O)=C(C(N)=O)C(=O)[C@@]2(O)C(O)=C3C(=O)c4c(O)cccc4[C@@](C)(O)[C@H]3C[C@@H]12 [tetracycline]	–	–	15.6	–

From article PMC12750394 (ACS Omega, 2025)
